Laboratory results published in PubChem BioAssay AID256 (DTP/NCI, 2004).
Inconclusive results and toxic doses are left out. How the source made its calls: active means survival T/C of 150% or more; inactive means T/C below 125% in these data.

Test system: CD2F1 mice, L1210 leukemia ip, survival T/C
Assay: NCI In Vivo Anticancer Drug Screen. Data for tumor model L1210 Leukemia (intraperitoneal) in CD2F1 (CDF1) mice
Settings: higher = longer survival
Procedure, shortened: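 Implant tumor; dose compound or vehicle; measure endpoint in both groups; report treated divided by control.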

[1] = endpoint: mean survival time, dose: 100.0 mg/kg/injection, schedule: Q01DX001 (ip), vehicle: saline with Tween-80
[2] = endpoint: mean survival time, dose: 200.0 mg/kg/injection, schedule: Q01DX001 (ip), vehicle: saline with Tween-80
[3] = endpoint: mean survival time, dose: 400.0 mg/kg/injection, schedule: Q01DX001 (ip), vehicle: saline with Tween-80
[4] = endpoint: mean survival time, dose: 100.0 mg/kg/injection, schedule: Q04DX003 (ip), vehicle: saline with Tween-80
[5] = endpoint: mean survival time, dose: 200.0 mg/kg/injection, schedule: Q04DX003 (ip), vehicle: saline with Tween-80
[6] = endpoint: mean survival time, dose: 400.0 mg/kg/injection, schedule: Q04DX003 (ip), vehicle: saline with Tween-80
[7] = endpoint: mean survival time, dose: 100.0 mg/kg/injection, schedule: Q04DX002 (ip), vehicle: saline with Tween-80
[8] = endpoint: mean survival time, dose: 200.0 mg/kg/injection, schedule: Q04DX002 (ip), vehicle: saline with Tween-80
[9] = endpoint: mean survival time, dose: 50.0 mg/kg/injection, schedule: Q01DX009 (ip), vehicle: saline with Tween-80
[10] = endpoint: mean survival time, dose: 100.0 mg/kg/injection, schedule: Q01DX009 (ip), vehicle: saline with Tween-80
[11] = endpoint: mean survival time, dose: 400.0 mg/kg/injection, schedule: Q04DX002 (ip), vehicle: saline with Tween-80

Measured: T/C

O=C(O)Cc1cc(=O)oc2ccccc12
inactive: [1] 104 % of control | [2] 104 % of control | [3] 96 % of control

O=C(N/N=C/c1ccc2c(c1)CCC2)c1ccc([N+](=O)[O-])cc1
inactive: [4] 95 % of control | [5] 89 % of control | [6] 98 % of control

NC(N)=N/N=C/c1cc(Cl)cc(Cl)c1O
inactive: endpoint: mean survival time, dose: 18.8 mg/kg/injection, schedule: Q01DX009 (ip), vehicle: saline 108 % of control | endpoint: mean survival time, dose: 18.8 mg/kg/injection, schedule: Q04DX003 (ip), vehicle: saline 106 % of control | endpoint: mean survival time, dose: 37.5 mg/kg/injection, schedule: Q01DX009 (ip), vehicle: saline 109 % of control | endpoint: mean survival time, dose: 37.5 mg/kg/injection, schedule: Q04DX003 (ip), vehicle: saline 112 % of control | endpoint: mean survival time, dose: 75.0 mg/kg/injection, schedule: Q01DX009 (ip), vehicle: saline 94 % of control | endpoint: mean survival time, dose: 75.0 mg/kg/injection, schedule: Q04DX003 (ip), vehicle: saline 114 % of control

CCc1nc(N)nc(N)n1
inactive: endpoint: mean survival time, dose: 50.0 mg/kg/injection, schedule: Q01DX009 (ip), vehicle: saline 104 % of control | endpoint: mean survival time, dose: 100.0 mg/kg/injection, schedule: Q01DX009 (ip), vehicle: saline 100 % of control | endpoint: mean survival time, dose: 200.0 mg/kg/injection, schedule: Q01DX009 (ip), vehicle: saline 104 % of control

CC(=O)OCC1OC(n2ncc3c2ncn2nnnc32)C(OC(C)=O)C1OC(C)=O (configuration not stated)
inactive: endpoint: mean survival time, dose: 18.75 mg/kg/injection, schedule: Q01DX005 (ip), vehicle: distilled water + alcohol 100 % of control | endpoint: mean survival time, dose: 37.5 mg/kg/injection, schedule: Q01DX005 (ip), vehicle: distilled water + alcohol 91 % of control | endpoint: mean survival time, dose: 75.0 mg/kg/injection, schedule: Q01DX005 (ip), vehicle: distilled water + alcohol 103 % of control | endpoint: mean survival time, dose: 150.0 mg/kg/injection, schedule: Q01DX005 (ip), vehicle: distilled water + alcohol 100 % of control | endpoint: mean survival time, dose: 300.0 mg/kg/injection, schedule: Q01DX005 (ip), vehicle: distilled water + alcohol 103 % of control

CC(C)(C)N1CCOCC1
inactive: [4] 100 % of control

Cc1ccc(NCC(O)C(O)C(O)CO)cc1C (configuration not stated)
inactive: [7] 106 % of control | [8] 103 % of control

O=C(Nc1c(Cl)cccc1Cl)OCCOc1ccccc1Cl
inactive: [9] 98 % of control | [10] 98 % of control | endpoint: mean survival time, dose: 200.0 mg/kg/injection, schedule: Q01DX009 (ip), vehicle: saline with Tween-80 98 % of control

C[PH+](CC[PH+](c1ccccc1)c1ccccc1)c1ccccc1.[C-]#[O+].[C-]#[O+].[C-]#[O+].[C-]#[O+].[Mo] (configuration not stated)
inactive: endpoint: mean survival time, dose: 25.0 mg/kg/injection, schedule: Q04DX002 (ip), vehicle: saline with Tween-80 93 % of control | endpoint: mean survival time, dose: 50.0 mg/kg/injection, schedule: Q04DX002 (ip), vehicle: saline with Tween-80 89 % of control | [7] 89 % of control

c1ccc(CSC2=NCCS2)cc1
inactive: [4] 108 % of control | [5] 98 % of control | [6] 97 % of control

O=C1c2cccc(O)c2C(=O)c2cccc(O)c21
inactive: [4] 102 % of control | [5] 94 % of control | [6] 105 % of control

CCCCn1c2ccccc2c2ccccc21
inactive: [4] 94 % of control | [6] 94 % of control

CC(C)(C)CC(C)(C)c1ccc(O)cc1O
inactive: endpoint: mean survival time, dose: 25.0 mg/kg/injection, schedule: Q01DX009 (ip), vehicle: saline with Tween-80 105 % of control | [9] 103 % of control | [1] 101 % of control | [10] 94 % of control

C=CC1(C)C(C)=C(C)C(C)=C1C
inactive: endpoint: mean survival time, dose: 100.0 mg/kg/injection, schedule: Q01DX001 (ip), vehicle: saline sonified 100 % of control | endpoint: mean survival time, dose: 200.0 mg/kg/injection, schedule: Q01DX001 (ip), vehicle: saline sonified 94 % of control | endpoint: mean survival time, dose: 400.0 mg/kg/injection, schedule: Q01DX001 (ip), vehicle: saline sonified 89 % of control

COc1cccc(CNc2ncnc3nc[nH]c23)c1
inactive: [4] 92 % of control | [5] 91 % of control | [6] 97 % of control

C(=NCc1ccccc1)c1ccc2c(c1)OCO2
inactive: [7] 100 % of control | [8] 100 % of control | [11] 100 % of control

NC(CSCc1ccccc1)C(=O)OCc1ccccc1 (configuration not stated)
inactive: [4] 104 % of control | [5] 102 % of control | [6] 104 % of control

O=c1[nH]cc(Br)cc1[N+](=O)[O-]
inactive: [7] 101 % of control | [8] 112 % of control | [11] 108 % of control

O=C(/C=C/C(=O)OCCCl)OCCCl
inactive: [4] 104 % of control | [5] 96 % of control

Cc1cc2n[se]nc2cc1C
inactive: endpoint: median survival time, dose: 3.12 mg/kg/injection, schedule: Q01DX009 (ip), vehicle: Klucel (hydroxypropylcellulose) (HPC) 94 % of control | endpoint: median survival time, dose: 6.25 mg/kg/injection, schedule: Q01DX009 (ip), vehicle: Klucel (hydroxypropylcellulose) (HPC) 95 % of control | endpoint: median survival time, dose: 12.5 mg/kg/injection, schedule: Q01DX009 (ip), vehicle: Klucel (hydroxypropylcellulose) (HPC) 98 % of control | endpoint: median survival time, dose: 25.0 mg/kg/injection, schedule: Q01DX009 (ip), vehicle: Klucel (hydroxypropylcellulose) (HPC) 101 % of control

CC(C)[C@]1(O)CC[C@H]2[C@@H]3CCc4cc(O)ccc4[C@H]3CC[C@@]21C
inactive: endpoint: mean survival time, dose: 100.0 mg/kg/injection, schedule: Q01DX009 (sc), vehicle: Klucel (hydroxypropylcellulose) (HPC) 104 % of control | endpoint: mean survival time, dose: 200.0 mg/kg/injection, schedule: Q01DX009 (sc), vehicle: Klucel (hydroxypropylcellulose) (HPC) 98 % of control | endpoint: mean survival time, dose: 400.0 mg/kg/injection, schedule: Q01DX009 (sc), vehicle: Klucel (hydroxypropylcellulose) (HPC) 92 % of control

CC(C)(C)[Si](OP(N)(=O)N(CCCl)CCCl)(c1ccccc1)c1ccccc1 (configuration not stated)
inactive: endpoint: mean survival time, dose: 15.6 mg/kg/injection, schedule: Q01DX001 (ip), vehicle: distilled water + Tween-80 102 % of control | endpoint: mean survival time, dose: 31.3 mg/kg/injection, schedule: Q01DX001 (ip), vehicle: distilled water + Tween-80 110 % of control | endpoint: mean survival time, dose: 62.5 mg/kg/injection, schedule: Q01DX001 (ip), vehicle: distilled water + Tween-80 110 % of control | endpoint: mean survival time, dose: 125.0 mg/kg/injection, schedule: Q01DX001 (ip), vehicle: distilled water + Tween-80 122 % of control | endpoint: mean survival time, dose: 250.0 mg/kg/injection, schedule: Q01DX001 (ip), vehicle: distilled water + Tween-80 111 % of control | endpoint: mean survival time, dose: 500.0 mg/kg/injection, schedule: Q01DX001 (ip), vehicle: distilled water + Tween-80 117 % of control

CC(C#N)(Nc1ccccc1)c1ccccn1 (configuration not stated)
inactive: [4] 101 % of control | [5] 93 % of control | [6] 89 % of control

Cc1cc(O)c(C)c(C)c1N=Nc1ccccc1
inactive: endpoint: mean survival time, dose: 100.0 mg/kg/injection, schedule: Q01DX005 (ip), vehicle: saline with Tween-80 97 % of control | endpoint: mean survival time, dose: 200.0 mg/kg/injection, schedule: Q01DX005 (ip), vehicle: saline with Tween-80 97 % of control | endpoint: mean survival time, dose: 400.0 mg/kg/injection, schedule: Q01DX005 (ip), vehicle: saline with Tween-80 97 % of control

CCCCCCCCCCCCOP(=S)(OCC)OCC
inactive: [7] 98 % of control | [8] 95 % of control | [11] 91 % of control

CCOC(=O)C[n+]1ccc(C(=O)c2cc3ccccc3[nH]2)cc1
inactive: [1] 97 % of control | [2] 101 % of control | [3] 93 % of control

ClC1=NC(Cl)(Cl)C(Cl)=C1Cl
inactive: endpoint: mean survival time, dose: 6.25 mg/kg/injection, schedule: Q04DX002 (ip), vehicle: saline 95 % of control | endpoint: mean survival time, dose: 12.5 mg/kg/injection, schedule: Q04DX002 (ip), vehicle: saline 95 % of control | endpoint: mean survival time, dose: 25.0 mg/kg/injection, schedule: Q04DX002 (ip), vehicle: saline 98 % of control

N#Cc1nnn(C2OC(CO)C(O)C2O)c1C#N (configuration not stated)
inactive: endpoint: mean survival time, dose: 12.5 mg/kg/injection, schedule: Q01DX005 (ip), vehicle: other 100 % of control | endpoint: mean survival time, dose: 25.0 mg/kg/injection, schedule: Q01DX005 (ip), vehicle: other 97 % of control | endpoint: mean survival time, dose: 50.0 mg/kg/injection, schedule: Q01DX005 (ip), vehicle: other 96 % of control | endpoint: mean survival time, dose: 100.0 mg/kg/injection, schedule: Q01DX005 (ip), vehicle: other 94 % of control | endpoint: mean survival time, dose: 200.0 mg/kg/injection, schedule: Q01DX005 (ip), vehicle: other 102 % of control

CC(C)CC(C)(C)COP(=S)(OCC(C)(C)CC(C)C)OCC(C)(C)CC(C)C
inactive: [7] 91 % of control | [8] 91 % of control | [11] 102 % of control

O=[N+]([O-])c1ccc2cn[nH]c2c1
inactive: endpoint: mean survival time, dose: 100.0 mg/kg/injection, schedule: Q01DX001 (ip), vehicle: alcohol 92 % of control | endpoint: mean survival time, dose: 200.0 mg/kg/injection, schedule: Q01DX001 (ip), vehicle: alcohol 98 % of control | endpoint: mean survival time, dose: 400.0 mg/kg/injection, schedule: Q01DX001 (ip), vehicle: alcohol 93 % of control
